Measurements reported in paper PMC9983021, “Novel GluN2B-Selective NMDA Receptor Negative Allosteric Modulator Possesses Intrinsic Analgesic Properties and Enhances Analgesia of Morphine in a Rodent Tail Flick Pain Model” (ACS Chemical Neuroscience, 2023).

How the values were obtained:
GluK2 = target: T1, GluK2 (Homo sapiens, UniProt Q13002); experiment: Off-target ligand-gated ion channels in Xenopus oocytes; assay type: cell-based; conditions: agonist 100 µM glutamate; mean ± SEM
T1 construct: expressed in transfected cells; host or cells: Xenopus oocytes
Description: (§1) EU93-108 was further examined for its behavior against common off-target receptors. First, selectivity for GluN2B over other ion channels in the brain was examined via two-electrode voltage clamp recordings of Xenopus oocytes expressing AMPA, kainate, nicotinic acetylcholine, serotonin, GABA, glycine, and ATP receptors. Current responses were tested with saturating concentrations of agonist in both the absence and presence of 10 μM EU93-108, and confirmed selectivity for GluN2B-containing NMDA receptors over AMPA, kainate, GABA, glycine, ATP, and 5-HT3A receptors (Supporting Table S3).
(§2) Receptor Agonist % Control
(§3) Supplemental Table S3. Off-target actions of EU93-108 at ligand-gated ion channels expressed in Xenopus oocytes. The mean ± standard error of the mean for agonist plus 10 μM EU93-108 as a percentage of agonist in vehicle are given for each compound and receptor tested. Number of oocytes tested is given in parentheses.

GluA2-R607Q = target: T2, GluA2-R607Q (Homo sapiens, UniProt P42262); experiment: as above; assay type: cell-based; conditions: agonist 100 µM glutamate; mean ± SEM
T2 construct: expressed in transfected cells; host or cells: Xenopus oocytes
Description: as §1, §2, §3

C57BL/6J mice = experiment: Preestablished morphine tolerance (tolerant mice, tail immersion test); assay type: in vivo; conditions: males 10 mg/kg, females 20 mg/kg i.p.
From the text: We next wanted to assess EU93-108 for effects on other facets of tolerance. Specifically, we were interested in whether EU93-108 could increase tail flick latency in mice that were already tolerant to morphine (i.e., preestablished tolerance). To assess the effect of EU93-108 on preestablished tolerance, five groups were used (n = 8 per group): vehicle/saline, vehicle/morphine, ifenprodil/morphine, EU93-108/saline, and EU93-108/morphine. All groups except for the vehicle/saline control group were administered morphine three times per day (according to the stair stepping protocol outlined in Figure 11) at gradually increasing doses from 25 to 40 mg/kg three times a day at 3–4 h intervals for three consecutive days until tolerance was observed on day 4 (Figure 12, black circles).
Figure 11 Dosing regimen to assess effects of EU93-108 on tolerant mice. TIT = tail immersion test. All mice received morphine or saline three times a day according to the protocol in Figure 9. Doses of morphine are shown above the arrows, in mg/kg. Once tolerance was established on day 4, the mice were randomly assigned to receive vehicle, EU93-108, or ifenprodil once a day for two consecutive days. […]
Mouse weights were recorded on the day of each experiment. […] Three recordings were taken for each mouse, and each data point is expressed as the mean of the three recordings. […] The identities were not decoded until the data were analyzed.
Prism 9.3.1 software (GraphPad, San Diego, CA) was used for all data analysis and visualization. Data for intrinsic antinociception was analyzed using one-way ANOVA and Dunnett’s post hoc test for multiple comparisons where each group was compared to vehicle. Data for acute morphine potentiation experiments were analyzed using one-way ANOVA and Tukey’s post hoc test for multiple comparisons was also used, where each group mean was compared to the mean of every other group. Data for tolerance experiments were analyzed using repeated measures two-way ANOVA and Bonferroni post hoc analysis. […]

PBR = experiment: Radioligand binding assay (NIMH PDSP); design: species or system human; conditions: primary screen, 10 µM, quadruplicate
Description: (§4) Conventional competition and saturation radioligand binding assays were used to determine the affinities of reference standards and EU93-108. Experiments were carried out by the NIMH Psychoactive Drug Screening Program (PDSP) and were performed as previously described.[123]
(§5) The detailed experimental protocols for the radioligand assays are available on the NIMH PDSP website at https://pdsp.unc.edu/pdspweb/content/UNC-CH%20Protocol%20Book.pdf.
(§6) Receptor Mean % Receptor Mean % Receptor Mean %
(§7) Inhibition Inhibition Inhibition
(§8) Supplemental Table S4. Off-Target Actions of EU93-108: Primary GPCR Screen. Cloned human molecular targets were individually expressed and submitted to molecular target-based screening with initial screens performed at a final concentration of 10 µM in quadruplicate. Complete protocols for the assays have been previously published (Besnard J et al. 2012). Where inhibition greater than 50% was measured, secondary screens were performed wherein Ki values were calculated (see Table 4).

GABAA = experiment: Radioligand binding assay (NIMH PDSP); design: species or system human; conditions: primary screen, 10 µM, quadruplicate
Description: as §4, §5, §6, §7, §8

GluN1/GluN2A = GluN1/GluN2A (Rattus norvegicus, UniProt P35439+Q00959)
GluN1/GluN2B = GluN1/GluN2B (Rattus norvegicus, UniProt P35439+Q00960)
[1] = target: diheteromeric rat GluN1/GluN2Ac1/GluN2Ac2 (r2Ac1/r2Ac2) (Rattus norvegicus, UniProt P35439+Q00959); experiment: Concentration-inhibition curves, oocytes, C1/C2-tagged NMDARs
[2] = target: diheteromeric rat GluN1/GluN2Bc1/GluN2Bc2 (r2Bc1/r2Bc2) (Rattus norvegicus, UniProt P35439+Q00959+Q00960, A876H/F846L/G856D/H848F/K857R/M851T/M860L/Q845K/V861L); experiment: as above; assay type: cell-based
[3] = agonist 100 µM glutamate, 30 µM glycine, mean ± SEM
[4] = read-out: Mean % Inhibition by 10 μM EU93-108

Chain of GluN1/GluN2B (Q00960 27-1482, other chains not shown): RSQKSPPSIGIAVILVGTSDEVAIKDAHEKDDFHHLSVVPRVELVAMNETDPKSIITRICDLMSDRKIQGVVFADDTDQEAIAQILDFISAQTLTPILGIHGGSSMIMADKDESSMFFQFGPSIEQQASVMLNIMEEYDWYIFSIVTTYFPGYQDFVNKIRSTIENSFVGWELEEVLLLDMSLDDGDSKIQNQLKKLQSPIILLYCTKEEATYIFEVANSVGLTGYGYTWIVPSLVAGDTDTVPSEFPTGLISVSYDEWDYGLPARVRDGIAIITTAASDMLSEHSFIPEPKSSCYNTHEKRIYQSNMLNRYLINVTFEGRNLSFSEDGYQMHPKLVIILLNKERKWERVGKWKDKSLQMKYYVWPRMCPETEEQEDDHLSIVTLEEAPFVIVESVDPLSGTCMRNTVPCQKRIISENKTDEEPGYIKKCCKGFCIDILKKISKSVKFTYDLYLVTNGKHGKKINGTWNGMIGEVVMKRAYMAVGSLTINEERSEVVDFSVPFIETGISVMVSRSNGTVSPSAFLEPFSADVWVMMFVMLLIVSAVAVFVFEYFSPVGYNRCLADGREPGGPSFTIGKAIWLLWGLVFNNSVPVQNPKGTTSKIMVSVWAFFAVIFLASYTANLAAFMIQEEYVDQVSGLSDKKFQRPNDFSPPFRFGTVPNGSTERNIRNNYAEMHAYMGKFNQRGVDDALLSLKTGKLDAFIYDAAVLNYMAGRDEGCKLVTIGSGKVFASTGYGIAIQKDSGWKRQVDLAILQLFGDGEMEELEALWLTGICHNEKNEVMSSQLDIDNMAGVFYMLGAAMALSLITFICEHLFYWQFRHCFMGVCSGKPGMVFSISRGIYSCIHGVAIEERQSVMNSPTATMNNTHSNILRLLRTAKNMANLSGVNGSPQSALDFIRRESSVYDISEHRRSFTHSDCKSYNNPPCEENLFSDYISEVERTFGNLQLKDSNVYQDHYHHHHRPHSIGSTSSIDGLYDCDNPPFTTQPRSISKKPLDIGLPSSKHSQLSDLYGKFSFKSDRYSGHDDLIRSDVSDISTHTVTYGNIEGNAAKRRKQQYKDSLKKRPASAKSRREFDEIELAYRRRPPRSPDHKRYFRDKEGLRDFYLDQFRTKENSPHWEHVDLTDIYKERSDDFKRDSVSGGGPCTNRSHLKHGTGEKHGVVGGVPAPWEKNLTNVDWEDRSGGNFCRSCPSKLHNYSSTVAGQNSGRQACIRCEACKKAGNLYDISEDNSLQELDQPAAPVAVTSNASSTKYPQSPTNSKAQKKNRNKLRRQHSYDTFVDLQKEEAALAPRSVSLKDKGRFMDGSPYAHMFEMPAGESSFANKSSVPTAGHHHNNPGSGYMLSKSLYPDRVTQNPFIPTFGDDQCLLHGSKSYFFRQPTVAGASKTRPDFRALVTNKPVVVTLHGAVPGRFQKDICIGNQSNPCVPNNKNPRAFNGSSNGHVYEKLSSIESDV
Chain of diheteromeric rat GluN1/GluN2Bc1/GluN2Bc2 (r2Bc1/r2Bc2) (Q00960+Q00959 fused with the stated changes, other chains not shown): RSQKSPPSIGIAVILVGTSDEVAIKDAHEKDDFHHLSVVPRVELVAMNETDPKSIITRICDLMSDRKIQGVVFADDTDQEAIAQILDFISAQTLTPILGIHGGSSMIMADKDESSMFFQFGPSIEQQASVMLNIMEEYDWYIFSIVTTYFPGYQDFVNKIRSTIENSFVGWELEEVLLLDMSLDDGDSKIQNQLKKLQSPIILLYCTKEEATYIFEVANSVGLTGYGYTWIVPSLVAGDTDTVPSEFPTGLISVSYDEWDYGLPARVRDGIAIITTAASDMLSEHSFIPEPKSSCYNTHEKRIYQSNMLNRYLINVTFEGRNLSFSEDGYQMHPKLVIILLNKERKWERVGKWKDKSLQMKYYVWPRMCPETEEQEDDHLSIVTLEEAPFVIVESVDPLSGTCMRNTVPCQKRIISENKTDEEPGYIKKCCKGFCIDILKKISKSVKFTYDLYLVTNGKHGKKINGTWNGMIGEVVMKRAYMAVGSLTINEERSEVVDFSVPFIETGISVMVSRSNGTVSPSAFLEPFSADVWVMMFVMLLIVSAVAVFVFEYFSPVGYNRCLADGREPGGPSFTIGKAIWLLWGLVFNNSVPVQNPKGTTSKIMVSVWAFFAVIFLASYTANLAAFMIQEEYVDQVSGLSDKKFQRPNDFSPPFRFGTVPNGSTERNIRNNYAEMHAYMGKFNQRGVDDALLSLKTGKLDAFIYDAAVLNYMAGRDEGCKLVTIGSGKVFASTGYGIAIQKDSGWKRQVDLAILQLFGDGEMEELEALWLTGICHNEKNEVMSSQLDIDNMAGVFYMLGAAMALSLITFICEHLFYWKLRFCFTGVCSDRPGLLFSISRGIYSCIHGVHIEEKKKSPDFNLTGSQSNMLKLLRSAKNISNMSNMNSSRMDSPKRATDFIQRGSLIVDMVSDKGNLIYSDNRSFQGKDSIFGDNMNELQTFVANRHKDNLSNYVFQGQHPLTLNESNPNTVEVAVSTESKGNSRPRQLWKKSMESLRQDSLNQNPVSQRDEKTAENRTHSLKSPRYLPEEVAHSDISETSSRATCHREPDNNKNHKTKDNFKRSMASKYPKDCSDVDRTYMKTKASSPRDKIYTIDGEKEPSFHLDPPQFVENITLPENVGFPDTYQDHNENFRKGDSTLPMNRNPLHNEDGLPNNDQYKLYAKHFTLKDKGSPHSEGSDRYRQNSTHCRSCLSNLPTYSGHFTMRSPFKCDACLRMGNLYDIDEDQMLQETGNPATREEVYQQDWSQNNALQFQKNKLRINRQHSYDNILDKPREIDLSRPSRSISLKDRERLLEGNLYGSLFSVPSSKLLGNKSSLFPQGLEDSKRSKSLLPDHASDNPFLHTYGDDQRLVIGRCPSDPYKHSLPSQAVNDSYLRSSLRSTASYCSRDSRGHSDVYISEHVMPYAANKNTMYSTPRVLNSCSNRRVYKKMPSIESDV
Chain of diheteromeric rat GluN1/GluN2Bc1/GluN2Bc2 (r2Bc1/r2Bc2) (Q00960+Q00959 fused with the stated changes, other chains not shown): as above

## CS(=O)(=O)Nc1ccc(OC[C@@H](O)CN2CCN(c3ccc(F)c(F)c3)CC2)cc1 [EU93-108, (S)-N-(4-(3-(4-(3,4-Difluorophenyl)piperazin-1-yl)-2-hydroxypropoxy)phenyl)methanesulfonamide]
GluK2
  % Control 10 µM EU93-108: 88.1 ± 4.4%
GluA2-R607Q
  % Control 10 µM EU93-108: 98.4 ± 0.57%
C57BL/6J mice; co-administered with morphine
  tail flick latency in morphine-tolerant mice, day 5 vs day 4: did not show a further decrease in latency on day 5
C57BL/6J mice; given with saline (no morphine)
  tail flick latency in morphine-tolerant mice, day 5 vs day 4: most significant decrease in latency
PBR
  Mean % Inhibition: -0.34%
GABAA
  Mean % Inhibition: 1.91%
GluN1/GluN2A; [3]
  % Control 10 µM EU93-108: 95.6 ± 1.6%
GluN1/GluN2A; [4]
  inhibition at 10 µM: 4.6 ± 1.5%
GluN1/GluN2B; [3]
  % Control 10 µM EU93-108: 13.2 ± 6.1%
GluN1/GluN2B; at 10 μM
  inhibition of GluN2B relative to the other NMDAR subunits: approximately 18 fold
GluN1/GluN2B; [4]
  inhibition at 10 µM: 86.8 ± 6.1%
[1]; 10 μM, % of maximal response, n = 6
  residual current at 10 μM: 105%
[1]; residual response, Table S1, N = 6
  Ymin: 104.8
[2]; 10 μM, % of maximal response, n = 8
  residual current remaining at 10 μM EU93-108: 10.6%
[2]; 100 μM glutamate and 100 μM glycine, −40 mV, pH 7.4, n = 8
  IC50: 233 nM
[2]; Hill slope factor of the inhibition curve, Table S1
  nH: -1.06
[2]; residual response, Table S1, N = 8
  Ymin: 10.6
